Test results from PubChem BioAssay (NCI).
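Compound exposure: 48 hours, 5 concentrations, 96-well plates. At the TGI there is no net growth.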

How the values were obtained:
Test in all cases: NCI tumour cell line growth inhibition, 48 h
[1] = test system: EKVX NSCLC
[2] = test system: HOP-92 NSCLC
[3] = test system: TK-10 renal
[4] = test system: HL-60(TB) leukemia
[5] = test system: NCI-H460 lung
[6] = test system: MALME-3M melanoma
[7] = test system: HOP-62 NSCLC
[8] = test system: A549 NSCLC
[9] = test system: HCT-15 colon
[10] = test system: LOX IMVI melanoma
[11] = test system: K-562 leukemia
[12] = test system: UACC-257 melanoma
[13] = test system: ACHN renal
[14] = test system: NCI/ADR-RES ovarian
[15] = test system: MCF7 breast
[16] = test system: MOLT-4 leukemia
[17] = test system: SW-620 colon
[18] = test system: SF-268 CNS
[19] = test system: SK-MEL-28 melanoma
[20] = test system: T-47D breast

SMILES | TGI [1] [µM] | TGI [2] [µM] | TGI [3] [µM] | TGI [4] [µM] | TGI [5] [µM] | TGI [6] [µM] | TGI [7] [µM] | TGI [8] [µM] | TGI [9] [µM] | TGI [10] [µM] | TGI [11] [µM] | TGI [12] [µM] | TGI [13] [µM] | TGI [14] [µM] | TGI [15] [µM] | TGI [16] [µM] | TGI [17] [µM] | TGI [18] [µM] | TGI [19] [µM] | TGI [20] [µM]
Cc1ccc(O)c(-c2cscn2)c1 | > 100 | > 100 | > 100 | 22.2 | > 100 | > 100 | > 100 | > 100 | > 100 | > 100 | > 100 | > 100 | > 100 | > 100 | > 100 | > 100 | > 100 |  |  | 
O=NN(CCCl)C(=O)NC1CCC(O)CC1 (stereo unspecified) | > 100 | 31.9 |  | 41.9 | > 100 | > 71.1 | > 100 | > 100 | 58.2 | > 60.6 | > 77.6 | > 85.2 |  | 69.4 | > 100 | 68.4 | > 100 | 43.3 | 63.4 | 
CCOC(=O)C1C2CCC1CC(=NNc1ccc([N+](=O)[O-])cc1[N+](=O)[O-])C2 (stereo unspecified) | > 50 | 48.7 | > 50 |  | > 50 | > 50 | > 50 | > 50 | > 50 | > 50 | > 50 | > 50 | > 50 | > 50 | > 50 | > 50 | > 50 | > 50 | > 50 | 
S=C(Nc1ccc2c(c1)oc1ccccc12)c1cccnc1 | > 100 | > 100 | > 100 |  | > 100 | > 100 | 32.9 | > 100 | > 100 | > 100 |  |  | > 100 | > 100 | > 100 | > 100 | > 100 | 87.4 | > 100 | > 100
O=C1c2ccccc2C2(c3ccc(Cl)cc3)N[C@H]3CCCC[C@@H]3N12 (stereo partly specified) | > 100 | > 100 | > 100 | > 100 |  |  | > 100 | > 100 | > 100 | > 100 | > 100 | > 100 | > 100 | > 100 |  | > 100 | > 100 | > 100 | > 100 | > 100
COc1cc(OC)c(C2c3cc4c(cc3OC(N3CCCC3)C2C)OCO4)c(OC)c1 (stereo unspecified) | > 100 |  | > 100 |  | 32.5 |  | 40.1 | 87.9 | 52.3 | 28.4 | 58.2 | 73 | 30.7 | 67 | 48.1 | 31.6 | > 100 | 40.3 | 46.2 | > 100
CC(C)(Cl)C(Br)CCC(=CCCl)CBr (mixture of isomers) | 36.1 | 4.03 | 5.21 | 2.6 | 5.71 | 4.85 | 8.33 | 32.8 | 3 |  | > 20.1 | 6.81 | 7.85 | 24.3 | 2.62 | > 21.2 | 4.43 | 4.21 | 5.65 | 
